{
  "source": "paper PMC8044227",
  "about": "“Cardiolipin enhances the enzymatic activity of cytochrome bd and cytochrome bo3 solubilized in dodecyl-maltoside” (Scientific Reports, 2021)",
  "type_in_all_cases": "biochemical",
  "key": {"[1]": {"molecular_target": "T1, cytochrome bd (C. glutamicum) (Corynebacterium glutamicum, UniProt Q9KWL8)", "T1 construct": "gene cydA; expressed from pPC4-cydABDC in C. glutamicum delta-ctaD, purified from membranes in DDM (CydD and CydC are not oxidase subunits)", "experiment": "O2 consumption inhibition, Clark-type electrode", "conditions": "menaquinol-1 substrate (200 μM quinone, 10 mM DTT); 0.025% DDM, pH 7.5, 37 °C; no cardiolipin"}, "[2]": {"molecular_target": "T2, cytochrome bd (G. thermodenitrificans) (Geobacillus stearothermophilus, UniProt Q9Z9N1)", "T2 construct": "gene cbdA; CbdAB expressed from pSTE-cbdAB in G. thermodenitrificans K1041, purified from membranes in MEGA9+10", "T2 sequence (Q9Z9N1 1-448)": "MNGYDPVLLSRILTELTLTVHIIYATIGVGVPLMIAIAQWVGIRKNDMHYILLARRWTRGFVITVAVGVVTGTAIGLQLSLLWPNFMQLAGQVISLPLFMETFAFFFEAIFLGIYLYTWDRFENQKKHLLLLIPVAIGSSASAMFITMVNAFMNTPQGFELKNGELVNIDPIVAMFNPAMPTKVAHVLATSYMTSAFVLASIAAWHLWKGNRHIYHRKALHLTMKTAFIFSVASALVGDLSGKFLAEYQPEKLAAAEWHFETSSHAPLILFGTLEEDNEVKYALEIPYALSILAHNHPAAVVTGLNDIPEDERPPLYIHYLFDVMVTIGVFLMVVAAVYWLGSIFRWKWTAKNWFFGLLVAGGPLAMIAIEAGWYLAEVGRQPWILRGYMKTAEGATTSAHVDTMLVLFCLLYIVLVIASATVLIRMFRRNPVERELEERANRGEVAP", "T2 sequence (Q9Z9N0 1-342 partner)": "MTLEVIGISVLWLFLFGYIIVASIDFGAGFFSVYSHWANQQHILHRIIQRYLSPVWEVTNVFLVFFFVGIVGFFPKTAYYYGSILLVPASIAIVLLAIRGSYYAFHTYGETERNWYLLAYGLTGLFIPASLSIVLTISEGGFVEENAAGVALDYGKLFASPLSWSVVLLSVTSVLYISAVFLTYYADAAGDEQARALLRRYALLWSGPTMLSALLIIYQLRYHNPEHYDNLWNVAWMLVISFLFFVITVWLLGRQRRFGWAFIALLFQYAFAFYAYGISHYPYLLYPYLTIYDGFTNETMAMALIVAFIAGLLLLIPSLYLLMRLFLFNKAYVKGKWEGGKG", "experiment": "O2 consumption inhibition, Clark-type electrode", "conditions": "menaquinol-1 substrate (200 μM quinone, 10 mM DTT); 0.025% DDM, pH 7.5, 37 °C; no cardiolipin"}, "[3]": {"molecular_target": "T1, cytochrome bd (C. glutamicum)", "experiment": "O2 consumption, Clark-type electrode", "conditions": "200 μM quinone, 10 mM DTT; 0.025% DDM, pH 7.5, 37 °C; no cardiolipin"}, "[4]": {"molecular_target": "T2, cytochrome bd (G. thermodenitrificans)", "experiment": "O2 consumption, Clark-type electrode", "conditions": "200 μM quinone, 10 mM DTT; 0.025% DDM, pH 7.5, 37 °C; no cardiolipin"}, "cytochrome bd (E. coli)": {"molecular_target": "T3, cytochrome bd (E. coli) (Escherichia coli, UniProt P0ABJ9)", "T3 construct": "gene cydA; CydABX complex, Strep-tag, expressed in E. coli MB43, streptactin-purified in DDM", "T3 sequence (P0ABJ9 1-522)": "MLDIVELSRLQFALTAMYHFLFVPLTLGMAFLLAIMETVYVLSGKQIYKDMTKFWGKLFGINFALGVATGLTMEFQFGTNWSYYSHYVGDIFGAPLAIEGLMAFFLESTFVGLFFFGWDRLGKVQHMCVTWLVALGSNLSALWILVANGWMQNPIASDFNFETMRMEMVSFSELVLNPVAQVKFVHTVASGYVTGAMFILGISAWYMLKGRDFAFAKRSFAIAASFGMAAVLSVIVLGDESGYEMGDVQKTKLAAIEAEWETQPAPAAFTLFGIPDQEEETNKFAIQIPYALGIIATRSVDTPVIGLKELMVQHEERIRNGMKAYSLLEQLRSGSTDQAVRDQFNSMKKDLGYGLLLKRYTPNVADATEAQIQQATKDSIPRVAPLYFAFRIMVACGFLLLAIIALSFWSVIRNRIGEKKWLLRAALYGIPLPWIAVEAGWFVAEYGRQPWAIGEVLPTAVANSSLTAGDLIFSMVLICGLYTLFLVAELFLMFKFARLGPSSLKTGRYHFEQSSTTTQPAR", "T3 sequence (P0ABK2 1-379 partner)": "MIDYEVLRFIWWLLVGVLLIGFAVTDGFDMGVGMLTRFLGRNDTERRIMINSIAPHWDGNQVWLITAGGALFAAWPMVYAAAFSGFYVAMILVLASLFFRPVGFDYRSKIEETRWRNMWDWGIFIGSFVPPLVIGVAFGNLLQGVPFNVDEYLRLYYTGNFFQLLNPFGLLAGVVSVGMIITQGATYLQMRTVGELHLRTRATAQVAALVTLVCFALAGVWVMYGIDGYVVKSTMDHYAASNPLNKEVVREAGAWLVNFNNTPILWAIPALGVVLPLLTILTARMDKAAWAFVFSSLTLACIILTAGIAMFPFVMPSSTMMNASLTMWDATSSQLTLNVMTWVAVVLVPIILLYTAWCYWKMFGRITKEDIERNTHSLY", "T3 sequence (P56100 1-37 partner)": "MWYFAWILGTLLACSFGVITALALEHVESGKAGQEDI", "experiment": "O2 consumption activation, Clark-type electrode", "conditions": "activator; bovine heart lipid, mixed acyl chains (primarily linoleic acid); ubiquinol-1 substrate; 0.025% DDM, pH 7.5, 37 °C", "excerpt": "O2 consumption activation, Clark-type electrode on cytochrome bd (E. coli) | We examined the effect of CL and observed ~ twofold activation of the oxygen consumption activity"}},
  "data": [
    {"molecule": "CC(C)=CCC/C(C)=C/CC/C(C)=C/Cc1c(C)[nH]c2ccccc2c1=O", "note": "[aurachin D]", "values": [
      {"measurement": "inhibition at 400 nM", "setting": "[1]", "result": "oxygen consumption activity in the presence and absence of CL was sensitive to inhibition by aurachin D"},
      {"measurement": "inhibition at 400 nM", "setting": "[2]", "result": "G. thermodenitrificans cytochrome bd was sensitive to inhibition by aurachin D"}
    ]},
    {"molecule": "CC(C)=CCc1c(C)c(O)c2ccccc2c1O", "note": "[menaquinol-1]", "values": [
      {"measurement": "O2 consumption, Clark-type electrode", "setting": "[3]", "result": "using menaquinol-1 instead of ubiquinol-1 as substrate"},
      {"measurement": "O2 consumption, Clark-type electrode", "setting": "[4]", "result": "using menaquinol-1 instead of ubiquinol-1 as substrate"}
    ]},
    {"molecule": "cardiolipin [CL]", "values": [
      {"measurement": "fold activation at 10 μM", "setting": "cytochrome bd (E. coli)", "result": "~ 2 fold"}
    ]}
  ]
}
